One series relates to uterine contractions. To be noted: cited from earlier work; for stopping uterine contractions: vaginal progesterone, injection of 17 alpha-hydroxyprogesterone caproate.
Series [1] relates to healthy primiparous women at ≧40 weeks gestation. The experiment in a line: Clinical study: change from baseline in Bishop score and cervical dilation (cervical ripening), 24 h IV infusion. The class given is in vivo, human. On the set-up: key to Total Bishop Score - Change from Baseline, Minimum / Total Bishop Score - Change from Baseline, Maximum / Total Bishop Score - Change from Baseline, Mean / Total Bishop Score - Change from Baseline, Median: Bishop score points; total score ranges 0 to 13. To be noted: for Total Bishop Score - Change from Baseline, Maximum / Total Bishop Score - Change from Baseline, Median / Total Bishop Score - Change from Baseline, Minimum / Total Bishop Score - Change from Baseline, Mean: 75 μg/kg/d IV, ITT. How it is done:
Overview of the Clinical Study. The current study was designed with two objectives. The first was to determine the safety of intravenous administration of recombinant human relaxin in women at term for 24 hours. The second objective was to determine whether a high dose of relaxin administered by this method for 24 hours could ripen the cervix or induce labor. The primary efficacy endpoint was change from baseline in Bishop score, which is a composite, well accepted measurement of cervical ripening (Bishop, 1964). The score has 5 components, all of which contribute to the cervical changes necessary for vaginal delivery of the baby: dilation, effacement, station, consistency and position of cervix.
Study Subjects. Study subjects were healthy primiparous women at ≧40 weeks gestation who were admitted to the hospital for scheduled induction of labor. This study was conducted in compliance with the requirements of the protocol, International Conference on Harmonization (ICH), Good Clinical Practices (GCP), FDA, local regulations and BAS Medical, Inc.'s standard operating procedures (SOP). The investigators were responsible for obtaining informed consent from each patient participating in the study. All pertinent aspects of the study were explained to the patient before he or she signed the informed consent form. Informed consent was approved by local ethics committees and was obtained from the patient before any activity or treatment was undertaken which was not part of routine care. This included, but was not limited to, the performance of diagnostic or therapeutic procedures and the administration of the first dose of the study medication.
Part A was a multicenter, randomized, double-blind, placebo-controlled, dose escalation study of 18 subjects at ≧40 weeks gestation and who were scheduled for induction. Doses of 7.5, 25 and 75 mcg/kg/day of relaxin were tested. Subjects were treated in cohorts of 6 and randomly assigned to receive relaxin or placebo in a 4:2 ratio, respectively. Dose escalation to the next dose level occurred once safety data was reviewed.
(§1) Eligible patients were admitted to the hospital at least 24-hours prior to scheduled induction. Either relaxin or matching placebo was administered by continuous intravenous infusion for 24 hours prior to induction. Subjects were monitored throughout the administration of study medication for blood pressure and heart rate, as well as for uterine contractions and the onset of labor. Fetal nonstress testing and heart rate monitoring were conducted for evaluation of fetal well-being. Blood samples were drawn for serum chemistry and hematology at baseline, 12 and 24 hr of dosing, and at 2 days, 1 week and 4 weeks after delivery. Samples for the evaluation of serum relaxin levels were drawn at baseline, 30 minutes, 1, 4, 6, 12, and 24 hr of dosing and a sample of cord blood was also drawn for relaxin measurement. A sample was also drawn from the study subject at 2 days post-delivery. Samples for measurement of development of anti-relaxin antibodies were drawn prior to dosing and at 1 and 4 weeks post-delivery. Neonates were evaluated for relaxin levels at 2 days and for the presence of anti-relaxin antibodies at 1 and 4 weeks.
(§2) Part B of the study was a multi-center, randomized, double-blind, placebo-controlled, parallel-group study of 50 subjects at ≧40 weeks gestation and who were scheduled for induction. Subjects were randomized in a 1:1 ratio to the most appropriate dose of relaxin determined from Part A or to placebo. As in Part A, eligible subjects were administered an intravenous infusion of relaxin or placebo for 24 hours prior to induction. Subjects and neonates were evaluated in a manner identical to that in Part A for all assessments.
The primary efficacy endpoint was change from baseline in Bishop score at 6, 12 and 24 hours (or end of study drug administration). […]

The test system is the same in series [2]. In words: Clinical study: secondary efficacy endpoints related to delivery. The class given is in vivo, human. How it is done:
as §1, §2
The primary efficacy endpoint was change from baseline in Bishop score at 6, 12 and 24 hours (or end of study drug administration). The score ranges from 0 (absence of any cervical changes) to a maximum of 13, representing a cervix that is completely dilated (>5 cm), effaced (>80%), soft, at a +1 or +2 station, and anteriorly positioned (Bishop, 1964). A number of secondary efficacy endpoints were also explored: Time to complete dilation; proportion of subjects with Bishop score change>3; proportion of subjects with Bishop score>5; proportion of subjects with Bishop score>8; time to active labor; time to delivery (vaginal or c-section); frequency of uterine contractions; incidence of uterine hyperstimulation requiring terbutaline treatment or discontinuation of study drug (relaxin or placebo) infusion; incidence of spontaneous labor; rates of c-section; incidence of abnormal fetal heart rate tracings; changes from baseline in systolic and diastolic blood pressure; changes from baseline in serum creatinine and predicted creatinine clearance as determined by the Cockroft-Gault formula.
Statistical Analysis. Analyses were conducted on the Intent-to-treat (ITT) population, which consisted of all randomized subjects and on the Per-protocol (PP) population, which consisted of all randomized subjects who received study medication for at least 18 hours (75% compliance) and had baseline and 24 hour (or end of treatment) assessments of the Bishop Score. For efficacy comparisons, the patients from Part A that received the active dose administered in Part B are pooled with the patients from Part B (pooled relaxin group) as are all placebo patients from parts A and B (pooled placebo group).

Series [3] in a line: Serum relaxin concentrations (Relaxin ELISA). It counts as in vivo, human. How it is done:
as §1
Relaxin ELISA. The measurement of serum relaxin concentrations is based on an enzyme immunoassay technique using 96-well microtiter plates coated with affinity purified goat-anti-relaxin antibodies. Pre-diluted controls and unknown samples were pipetted into the wells of the microtiter plate and incubated at 2-8° C. allowing for any relaxin present to bind to the anti-relaxin antibodies. After an overnight incubation the plates were washed to remove any non-reactive serum components. […] After a 20-minute incubation, an aliquot of 2M sulfuric acid was added to stop the color reaction and the absorbance was measured at 450 nm (reference 650 nm) using a plate spectrophotometer. […] The relaxin levels were quantified according to a standard curve generated by measuring purified recombinant relaxin in a 20% human serum matrix utilizing a four-parameter curve fit equation. […]
On the technique in general: An ELISA detects its analyte on a solid surface through an enzyme-linked reagent.

The subject of series [4] is healthy primiparous women at ≧40 weeks gestation. In words: Clinical study: safety (adverse events in subjects, fetuses, neonates). To be noted: for Serious adverse events in neonates (number): none related to the study drug. The class given is in vivo, human. On the procedure: Safety. Safety was assessed by means of reported and observed adverse events, physical examination and 12-lead ECG findings, vital sign measurements, and the results of clinical laboratory assessments. Serum clinical chemistry samples were taken at pre-dose, 12 and 24 hours following the start of dosing, 2 days, 1 week and 4 weeks postpartum. Maternal vital signs included temperature, heart rate and blood pressure. These evaluations were performed at screening, pre-dose, during dosing, 24-48 hours post-dosing and at 2 days, 1 week and 4 weeks post-partum. Measurements during the 24-48 hours post-dosing period were taken at 28, 32, 36, 40, 44 and 48 hours. Neonatal vital signs included temperature, pulse, respiration and blood pressure. All vital signs measurements were done at delivery, 2 days, 1 week and 4 weeks post-partum.
Adverse events in study subjects were recorded according to the time of onset, i.e. dosing period (0-24 hours), 24-hours post-infusion (24-48 hours) and follow-up (>48 hours). Adverse events reported in fetuses and in neonates were also summarized by treatment group. For laboratory tests (hematology, serum chemistry, urinalysis), vital signs, physical examination and ECGs summary statistics were provided for baseline and changes from Baseline for each scheduled time by treatment group. Post-hoc repeated measure analyses of systolic and diastolic blood pressure were also performed.

The test system of a further series is myometrium. To be noted: in vitro, nonpregnant and pregnant uteri (MacLennan 1991); cited from earlier work.
Another series has as its system nonpregnant women. To be noted: administered intravaginally, cited from earlier work.
A further series concerns women. To be noted: cited from earlier work.
[5] abbreviates: Last Obs., pooled relaxin group.
Where [6] appears, read: pooled relaxin group, p 0.153 vs placebo.
Setting [7] is: pooled relaxin group, p 0.213 vs placebo.

For the compound `CC(=O)[C@H]1CC[C@H]2[C@@H]3CCC4=CC(=O)CC[C@]4(C)[C@H]3CC[C@]12C` [progesterone], the stopping uterine contractions entry in the series with uterine contractions is “effective in stopping uterine contractions”.

Regarding relaxin, the “Total Bishop scores in the lower relaxin dose groups” value in series [1] (7.5 and 25 μg/kg/day, Part A, data not shown) was “no different than that seen in the pooled placebo group”. The “Total Bishop Score - Change from Baseline, Maximum” value turned out to be 9 in series [1] (6 hours, pooled relaxin group); 7 in series [1] (12 hours, pooled relaxin group); 7 in series [1] (24 hours, pooled relaxin group); 9 in series [1] (setting [5]). The “Total Bishop Score - Change from Baseline, Median” value turned out to be 1.00 in series [1] (6 hours, pooled relaxin group); 2.00 in series [1] (12 hours, pooled relaxin group); 4.00 in series [1] (24 hours, pooled relaxin group); 4.00 in series [1] (setting [5]). In addition, the “Total Bishop Score - Change from Baseline, Minimum” value is listed as 0 in series [1] (6 hours, pooled relaxin group); 0 in series [1] (12 hours, pooled relaxin group); 0 in series [1] (24 hours, pooled relaxin group); 0 in series [1] (setting [5]). The “Total Bishop Score - Change from Baseline, Mean” value in series [1] (6 hours, pooled relaxin group, P 0.2407 vs pooled placebo) is 1.55; in series [1] (12 hours, pooled relaxin group, P 0.1085 vs pooled placebo) it was 2.11; in series [1] (24 hours, pooled relaxin group, P 0.2507 vs pooled placebo) it was 3.26; in series [1] (Last Obs. (last available value post-baseline), pooled relaxin group, P 0.4900 vs pooled placebo) it was 3.59. Besides, in series [1] (24 hour time point, pooled relaxin group 75 mcg/kg/day IV (placebo 1.39 cm)), the “increase in cervical dilation from the initial dilation” value turned out to be 0.69 cm. Besides, the “Bishop score, difference between pooled relaxin and placebo groups” value in series [1] (any of the observation times (6, 12, 24 hours)) is reported as “no statistically significant differences”. The “cervical dilation compared to the placebo group” value in series [1] (pooled relaxin group, p<0.024 by t-test) is given as “significantly reduced”. The “Time to Vaginal Delivery (mean + SD)” value in series [2] (pooled relaxin group, n = 20, p 0.644 vs placebo) amounted to 62 ± 40 h. For the same compound, the “Time to Onset of Active Labor” value in series [2] (pooled relaxin group, n = 26, p 0.412 vs placebo) stood at 53 h. Further, the “Time to Delivery for Vaginal + C-section (mean + SD)” value in series [2] (pooled relaxin group, n = 29, p 0.251 vs placebo) worked out at 69 ± 40 h. Further, the “Incidence of Vaginal Deliveries” value in series [2] (setting [6]) is recorded as “(69%)”. The “Incidence of Vaginal Deliveries (subjects/total)” value in series [2] (setting [6]) is given as 20/29. Further, in series [2] (setting [7]), the “Incidence of Spontaneous Labor” value was “(41%)”. The “Incidence of Spontaneous Labor (subjects/total)” value in series [2] (setting [7]) is 12/29. The “effect on incidence or time to vaginal delivery, incidence of spontaneous labor or time to the onset of labor” value in series [2] (relaxin infusion vs placebo) was “did not significantly affect”. The “serum relaxin concentration post partum” value in series [3] (2 days post partum) is given as “just above levels of detection”. In addition, in series [3] (relaxin group, 75 mcg/kg/day IV infusion, at 12 hours of dosing), the “peak mean serum relaxin concentration” value is given as 13.0 ng/mL. Further, the “Mean serum relaxin concentration at baseline” value in series [3] (relaxin group, baseline, reflecting endogenous relaxin levels) was 0.293 ng/mL. The entries for the “Serious adverse events in neonates (number)” value in series [4] (7.5 mcg/kg/d dose group) and in series [4] (pooled relaxin group (75 mcg/kg/day)) were “one” and 4, respectively. In addition, the “adverse effects over the entire dosage range” value in series [4] (intravenous, 7.5-75 mcg/kg/day, pregnant women at term) is “no relevant adverse effects”. Moreover, the “Serious adverse events in fetuses (number of events)” value in series [4] (pooled relaxin group, fetal hypoxia of moderate severity, not related to the study drug) was “Two”. Besides, the “effect on fetal heart rate” value in series [4] (relaxin treatment) is reported as “no effect”. Besides, the “effect on myometrial contractions” value with myometrium is given as “inhibits myometrial contractions of nonpregnant uteri, but does not affect the myometrium of pregnancy”. Further, in the series on nonpregnant women (nonpregnant women), the “effect on cervical ripening” value is “did not show any effect”. Also, in the series with nonpregnant women, the safety of administration result is “safe and associated with minimal adverse side effects”. For the same compound, the “serum levels of relaxin after treatment” value in the series with nonpregnant women is recorded as “did not increase”.

As for `CCCCCC(=O)O[C@]1(C(C)=O)CC[C@H]2[C@@H]3CCC4=CC(=O)CC[C@]4(C)[C@H]3CC[C@@]21C` [17 alpha-hydroxyprogesterone caproate], the “safety questioned by the FDA” value in the series on uterine contractions (Meis et al. 2003, FDA advisory committees 2006) was “increase in miscarriage and fetal death”. The stopping uterine contractions result in the series on uterine contractions is “effective in stopping uterine contractions”.

Turning to porcine relaxin, the spontaneous labor entry in the series with women (intracervical gel vs placebo (MacLennan 1986)) was “more likely to go into spontaneous labor”. The “cervical effacement and time to delivery” value with women (intracervical pellet, randomized double-blind controlled trial (Evans et al. 1983)) was “greater cervical effacement (thinning) and a shorter time to delivery”.
